In PubChem BioAssay AID328 (DTP/NCI, 2004):
Several values for one entry are separate records, joined by “and”; a condition that tells them apart may be missing. Equal entries are not always repeated. Toxic doses and inconclusive results are not listed.

Tested on: BDF1 mice, P388 leukemia ip, median survival T/C
Assay: NCI In Vivo Anticancer Drug Screen. Data for tumor model P388 Leukemia (intraperitoneal) in B6D2F1 (BDF1) mice
Conditions: endpoint: median survival time, higher = longer survival
Experimental: The antitumor activity of compounds was measured in mice bearing transplantable tumors. Survival or tumor size were measured and the results are expressed as the measurement made in the treated group (T) divided by the measurement made in the vehicle treated control group (C). The tumor model used in this assay is P388 Leukemia (intraperitoneal) in B6D2F1 (BDF1) mice

[1] = dose: 50.0 mg/kg/injection, schedule: Q04DX003 (ip), vehicle: Klucel (hydroxypropylcellulose) (HPC)
[2] = dose: 100.0 mg/kg/injection, schedule: Q01DX009 (ip), vehicle: Klucel (hydroxypropylcellulose) (HPC)
[3] = dose: 100.0 mg/kg/injection, schedule: Q04DX003 (ip), vehicle: saline
[4] = dose: 200.0 mg/kg/injection, schedule: Q04DX003 (ip), vehicle: saline
[5] = dose: 400.0 mg/kg/injection, schedule: Q04DX003 (ip), vehicle: saline
[6] = dose: 100.0 mg/kg/injection, schedule: Q04DX003 (ip), vehicle: saline with Tween-80
[7] = dose: 200.0 mg/kg/injection, schedule: Q04DX003 (ip), vehicle: saline with Tween-80
[8] = dose: 400.0 mg/kg/injection, schedule: Q04DX003 (ip), vehicle: saline with Tween-80
[9] = dose: 100.0 mg/kg/injection, schedule: Q01DX009 (ip), vehicle: saline with Tween-80
[10] = dose: 200.0 mg/kg/injection, schedule: Q01DX009 (ip), vehicle: saline with Tween-80
[11] = dose: 100.0 mg/kg/injection, schedule: Q04DX003 (ip), vehicle: Klucel (hydroxypropylcellulose) (HPC)
[12] = dose: 200.0 mg/kg/injection, schedule: Q04DX003 (ip), vehicle: Klucel (hydroxypropylcellulose) (HPC)
[13] = dose: 400.0 mg/kg/injection, schedule: Q04DX003 (ip), vehicle: Klucel (hydroxypropylcellulose) (HPC)
[14] = dose: 12.5 mg/kg/injection, schedule: Q01DX009 (ip), vehicle: saline with Tween-80
[15] = dose: 25.0 mg/kg/injection, schedule: Q01DX009 (ip), vehicle: saline with Tween-80
[16] = dose: 50.0 mg/kg/injection, schedule: Q01DX009 (ip), vehicle: saline with Tween-80
[17] = dose: 100.0 mg/kg/injection, schedule: Q01DX001 (ip), vehicle: saline with Tween-80
[18] = dose: 200.0 mg/kg/injection, schedule: Q01DX001 (ip), vehicle: saline with Tween-80
[19] = dose: 6.25 mg/kg/injection, schedule: Q01DX009 (ip), vehicle: saline with Tween-80
[20] = dose: 25.0 mg/kg/injection, schedule: Q04DX003 (ip), vehicle: saline
[21] = dose: 400.0 mg/kg/injection, schedule: Q01DX009 (ip), vehicle: Klucel (hydroxypropylcellulose) (HPC)

SMILES: C[C@]12CCC(=O)C=C1CC[C@@H]1[C@@H]2C(=O)C[C@]2(C)C3=CC(=O)O[C@H]3C[C@@H]12
- T/C (dose: 12.5 mg/kg/injection, schedule: Q01DX009 (ip), vehicle: Klucel (hydroxypropylcellulose) (HPC)): 109 % of control and 110 % of control
- T/C (dose: 12.5 mg/kg/injection, schedule: Q04DX003 (ip), vehicle: Klucel (hydroxypropylcellulose) (HPC)): 109 % of control
- T/C (dose: 25.0 mg/kg/injection, schedule: Q01DX009 (ip), vehicle: Klucel (hydroxypropylcellulose) (HPC)): 118 % of control and 120 % of control
- T/C (dose: 25.0 mg/kg/injection, schedule: Q04DX003 (ip), vehicle: Klucel (hydroxypropylcellulose) (HPC)): 113 % of control
- T/C (dose: 50.0 mg/kg/injection, schedule: Q01DX009 (ip), vehicle: Klucel (hydroxypropylcellulose) (HPC)): 86 % of control and 115 % of control
- T/C [1]: 122 % of control
- T/C [2]: 90 % of control

SMILES: CC(=O)OCC(CO)(CO)CO
- T/C [3]: 100 % of control
- T/C [4]: 100 % of control
- T/C [5]: 100 % of control

SMILES: CC(=O)NC(C)C(C)C (stereo not given)
- T/C [3]: 100 % of control
- T/C [4]: 95 % of control
- T/C [5]: 100 % of control

SMILES: Clc1ccccc1CCCBr
- T/C [6]: 95 % of control
- T/C [7]: 100 % of control
- T/C [8]: 105 % of control

SMILES: C#CC1(OCC(O)CCl)CCCCC1 (stereo not given)
- T/C [9]: 116 % of control
- T/C [3]: 110 % of control
- T/C [10]: 104 % of control
- T/C [4]: 120 % of control
- T/C [5]: 100 % of control

SMILES: O=c1cc(-c2ccccc2)nc2c(Cl)cc(Cl)cn12
- T/C [11]: 89 % of control
- T/C [12]: 100 % of control
- T/C [13]: 96 % of control

SMILES: CC1(C)CCC(C#N)=C1N
- T/C [14]: 95 % of control
- T/C [15]: 91 % of control
- T/C [16]: 95 % of control

SMILES: NC(=S)N/N=C\c1nccc2ccc(N)cc12
- T/C [16]: 157 % of control

SMILES: CCCCCCCCCCCCCCCCCCNC(=S)N/N=C/c1ccc(Cl)cc1Cl
- T/C [1]: 105 % of control
- T/C [11]: 90 % of control
- T/C [6]: 100 % of control
- T/C [7]: 100 % of control
- T/C [8]: 100 % of control

SMILES: CN1CCCc2cccc(NC(=O)C3CCCNC3=O)c21 (stereo not given)
- T/C [6]: 101 % of control
- T/C [7]: 100 % of control
- T/C [8]: 116 % of control

SMILES: O=Cc1c2c(c(C=O)c3c1OCO3)OCO2
- T/C [17]: 97 % of control
- T/C [18]: 97 % of control
- T/C (dose: 400.0 mg/kg/injection, schedule: Q01DX001 (ip), vehicle: saline with Tween-80): 90 % of control

SMILES: O=C(C=C(C(F)(F)F)C(F)(F)F)c1cc(Cl)ccc1Cl
- T/C (dose: 3.12 mg/kg/injection, schedule: Q01DX009 (ip), vehicle: saline with Tween-80): 95 % of control
- T/C [19]: 95 % of control
- T/C (dose: 7.0 mg/kg/injection, schedule: Q04DX003 (ip), vehicle: saline with Tween-80): 112 % of control
- T/C (dose: 11.0 mg/kg/injection, schedule: Q04DX003 (ip), vehicle: saline with Tween-80): 120 % of control
- T/C [14]: 103 % of control and 108 % of control
- T/C (dose: 12.5 mg/kg/injection, schedule: Q04DX003 (ip), vehicle: saline with Tween-80): 115 % of control
- T/C (dose: 16.5 mg/kg/injection, schedule: Q04DX003 (ip), vehicle: saline with Tween-80): 120 % of control
- T/C (dose: 25.0 mg/kg/injection, schedule: Q04DX003 (ip), vehicle: saline with Tween-80): 113 % of control
- T/C (dose: 37.5 mg/kg/injection, schedule: Q04DX003 (ip), vehicle: saline with Tween-80): 121 % of control

SMILES: CNc1n[n+](-c2ccccc2)no1
- T/C (dose: 3.12 mg/kg/injection, schedule: Q01DX009 (ip), vehicle: saline): 115 % of control
- T/C (dose: 6.25 mg/kg/injection, schedule: Q01DX009 (ip), vehicle: saline): 101 % of control and 120 % of control
- T/C (dose: 6.25 mg/kg/injection, schedule: Q04DX003 (ip), vehicle: saline): 102 % of control
- T/C (dose: 12.5 mg/kg/injection, schedule: Q04DX003 (ip), vehicle: saline): 96 % of control
- T/C [20]: 104 % of control and 107 % of control

SMILES: CCC(C#N)(c1ccccc1)c1ccccc1
- T/C [2]: 90 % of control
- T/C [11]: 95 % of control
- T/C [12]: 95 % of control
- T/C [21]: 100 % of control
- T/C [13]: 100 % of control

SMILES: Cc1cc(=O)c2c(C)cccc2[nH]1
- T/C (dose: 6.25 mg/kg/injection, schedule: Q04DX003 (ip), vehicle: saline sonified): 104 % of control
- T/C (dose: 12.5 mg/kg/injection, schedule: Q04DX003 (ip), vehicle: saline sonified): 109 % of control
- T/C [15]: 113 % of control
- T/C (dose: 25.0 mg/kg/injection, schedule: Q04DX003 (ip), vehicle: saline sonified): 100 % of control

SMILES: CCc1ccccc1OS(=O)(=O)c1ccccc1[N+](=O)[O-]
- T/C [11]: 100 % of control
- T/C [12]: 100 % of control
- T/C [13]: 100 % of control

SMILES: O=C1c2c(O)ccc([N+](=O)[O-])c2C(=O)c2c([N+](=O)[O-])ccc(O)c21
- T/C [11]: 118 % of control
- T/C [12]: 122 % of control
- T/C [13]: 113 % of control

SMILES: CCOC(=O)/C(C#N)=N\O
- T/C (dose: 25.0 mg/kg/injection, schedule: Q01DX009 (ip), vehicle: saline): 100 % of control
- T/C [20]: 113 % of control
- T/C (dose: 50.0 mg/kg/injection, schedule: Q01DX009 (ip), vehicle: saline): 120 % of control
- T/C (dose: 50.0 mg/kg/injection, schedule: Q04DX003 (ip), vehicle: saline): 104 % of control
- T/C [3]: 95 % of control

SMILES: COc1cc(C#N)ccc1O
- T/C (dose: 100.0 mg/kg/injection, schedule: Q01DX009 (ip), vehicle: gum acacia): 100 % of control
- T/C (dose: 100.0 mg/kg/injection, schedule: Q04DX003 (ip), vehicle: gum acacia): 92 % of control
- T/C (dose: 200.0 mg/kg/injection, schedule: Q01DX009 (ip), vehicle: gum acacia): 87 % of control
- T/C (dose: 200.0 mg/kg/injection, schedule: Q04DX003 (ip), vehicle: gum acacia): 88 % of control

SMILES: COc1ccc2[nH]c3c(C)c4cc[n+](C)cc4c(C)c3c2c1
- T/C [19]: 99 % of control

SMILES: CCCCCCCCC(O)CCCC (stereo not given)
- T/C [11]: 91 % of control
- T/C [12]: 91 % of control
- T/C [13]: 100 % of control

SMILES: Cc1cc(N(CCCl)CCCl)ccc1C=Nc1cccc(Cl)c1
- T/C [16]: 103 % of control
- T/C [9]: 119 % of control
- T/C [6]: 118 % of control
- T/C [10]: 96 % of control
- T/C [7]: 118 % of control

SMILES: C[Si]1(C)CCCSC1
- T/C [14]: 89 % of control
- T/C [15]: 91 % of control
- T/C [16]: 93 % of control
- T/C [9]: 103 % of control

SMILES: CCCCCCCCCCCCCCCC(=O)NCCO
- T/C (dose: 100.0 mg/kg/injection, schedule: Q04DX003 (ip), vehicle: saline sonified): 91 % of control

SMILES: CCC[CH2][Sn]1([CH2]CCC)[O]OC(c2ccccc2)[O]1 (stereo not given)
- T/C (dose: 0.5 mg/kg/injection, schedule: Q01DX009 (ip), vehicle: saline with Tween-80): 109 % of control
- T/C (dose: 1.0 mg/kg/injection, schedule: Q01DX009 (ip), vehicle: saline with Tween-80): 123 % of control
- T/C (dose: 1.25 mg/kg/injection, schedule: Q04DX003 (ip), vehicle: other): 109 % of control
- T/C (dose: 1.32 mg/kg/injection, schedule: Q01DX009 (ip), vehicle: saline with Tween-80): 115 % of control and 116 % of control
- T/C (dose: 2.0 mg/kg/injection, schedule: Q01DX009 (ip), vehicle: saline with Tween-80): 110 % of control and 120 % of control
- T/C (dose: 2.5 mg/kg/injection, schedule: Q04DX003 (ip), vehicle: other): 105 % of control and 113 % of control
- T/C (dose: 5.0 mg/kg/injection, schedule: Q04DX003 (ip), vehicle: other): 118 % of control
- T/C (dose: 12.0 mg/kg/injection, schedule: Q01DX009 (ip), vehicle: saline with Tween-80): 150 % of control

SMILES: CCCCCCC(=O)CCCC(C)CCCC(C)C (stereo not given)
- T/C [2]: 100 % of control
- T/C (dose: 200.0 mg/kg/injection, schedule: Q01DX009 (ip), vehicle: Klucel (hydroxypropylcellulose) (HPC)): 109 % of control
- T/C [21]: 118 % of control

SMILES: O=[N+]([O-])c1ccc(N2[C@@H]3C4CCC([C@@H]32)C42OCCO2)cc1
- T/C (dose: 50.0 mg/kg/injection, schedule: Q01DX001 (ip), vehicle: saline with Tween-80): 93 % of control
- T/C [17]: 118 % of control
- T/C [18]: 93 % of control
